In US20200385396A1, “Compond for treatment or prevention of obesity or diseases related to obesity, and application thereof” (SHANGHAI INSTITUTES FOR BIOLOGICAL SCIENCES, CHINESE …, priority 2017, published 2020):

Tests used:
Water solubility = format: physicochemical
normal mice = experiment: Food intake of mice after single intraperitoneal injection; format: in vivo, mouse
Experimental: (§1) Mice were intraperitoneally injected with DMSO or HLY72 (dissolved in DMSO) 25 μL within 2 hours before turning off the lamp. During the intragastric experiment, the high concentration of HLY72 dissolved in DMSO was dissolved in 10% cyclodextrin, and the total volume was 100 μL Volume by gavage, so that the final concentration of DMSO was less than 10%. The diet was weighed at the 3rd hour, the 6th hour, the 12th hour, and the 24th hour respectively after the lights out. The corresponding mouse body weight was also weighed at the same time before the daily administration. The fat content of mice was measured with the magnetic resonance fat content measuring instrument of the animal platform in SIBCB.
The next question we are very concerned about is whether HLY78 has similar functions to NUCB2 protein in mice. Up to now, the most classic function reported for NUCB2 protein is to reduce the food intake of mice at night. Therefore, the experiment was designed: 20 mg/kg of HLY78 was injected intraperitoneally within two hours before turning off the lights at night, and then the food intake of the mice was measured at different time points (0-3 h, 0-6 h, 0-12 h, 0-24 h). […] During the three days of the adaptive injection period before HLY78 injection, both groups of mice were injected with DMSO. On the day of injection of HLY78 and the two days before the injection of DMSO, the body weight of the two groups of mice is also the same (FIG. 2b).
Next, two small molecules HLY72 and HLY103 were selected to perform functional experiments on the food intake in mice.

[1] = test system: lipid metabolism related genes; experiment: Expression of lipid metabolism related genes in tissues (RT-PCR); format: in vivo, mouse; details: 20 mg/kg 3 consecutive days
Experimental: Mice fed with normal diet are injected with 20 mg/kg of HLY72 for 3 consecutive days, and the white adipose tissue (A) is taken to detect fat storage, fatty acid synthesis and decomposition-related gene expression. Liver (B) is taken to detect fatty acid transport and oxidative gene expression. Muscle (C) is taken to test the fatty acid transport and oxidative gene expression (14 mice per group).
After the mice were euthanized, the corresponding tissues were immediately peeled off and quickly frozen with liquid nitrogen and stored at −80° C. For the cell sample in the 6-well petri dish, after removing the culture medium, 1 mL of Trizol was added and placed at room temperature for 10 minutes, then transferred to a 1.5 mL EP tube and stored at −80° C. When extracting tissue RNA, 1.5 mL of Trizol was added to the tissue homogenization tube containing steel balls, the tissue was removed from the −80° C. refrigerator and put into the homogenization tube to homogenize and crush. RNA was extracted by phenol-chloroform-isopropanol method. Using the Superscript™III first strand synthesis system (Invitrogen) kit, 1 μg of mRNA was reverse transcribed into cDNA, and random primers were used for reverse transcription. Quantitative SYBR green PCR kit (Takara) kit was used for quantitative PCR reaction. The instrument for PCR reaction was ABI-QuantStudio 6 Realtime PCR instrument.
After injection of HLY72 in mice, the epididymal white adipose tissue, liver and muscle tissue were taken to detect the expression of lipid metabolism related genes. […] The expression of fatty acid transporter gene FAT (CD36), FATP2, FATP5 on the liver cell membrane is increased, the expression of the transporter gene CPT1A for fatty acid entering the mitochondria and the key enzyme gene ACADM of fatty acid β-oxidation are increased (FIG. 15b). At the same time, the expression of muscle cell membrane fatty acid transporter genes FATP1 and FATP4 are increased, and the expression of the transporter gene CPT1B for fatty acid entering the mitochondria and the key enzyme gene ACADM of fatty acid β-oxidation are increased (FIG. 15c). Changes in gene expression in these tissues indicate that liver and muscle tissues have increased the use of fatty acids.

[2] = test system: NUCB2 gene knockout heterozygous mice; experiment: Effect on NUCB2 gene knockout heterozygous mice; format: in vivo, mouse
Text: Heterozygous mice prepared by the CRISPR-Cas9 system were purchased from Xiamen University. […] Heterozygous mice deleted 83 bases in E3 and confirmed by sequencing (FIG. 17c). In order to facilitate the experiment, for mice with 83 bases deleted, we designed primers to detect by PCR (FIG. 17b). Because of the failure to obtain NUCB2 knockout homozygous mice for multiple matches, only heterozygous mice can be used for research.

high-fat diet obese mice = experiment: Fat and muscle content (magnetic resonance) of high-fat diet obese mice; format: in vivo, mouse
Experimental: as §1
In the experiment, high-fat diets were used to feed obese mice weighing about 40 grams for 22 weeks, according to the way used in the previous 3 courses.

mice = experiment: Water consumption of mice; format: in vivo, mouse; details: 20 mg/kg injection, three consecutive days
Experimental: Since OB/OB mice are a diabetic mouse model, they have the characteristics of polyphagia, polydipsia, and polyuria. […] Again whether HLY72 had the effect of reducing drinking water in mice was tested. […] For the mice of high-fat diet (HFD), the three-day water consumption is only 26.38%±2.06% of the control group (FIG. 9). Therefore, HLY72, like NUCB2/Nesfatin-1, has the effect of reducing water consumption in mice.

C=Cc1cccc2c1N(C)Cc1cc3c(cc1-2)OCO3 [HLY72]
water solubility (Water solubility): very poor | food intake of mice (normal mice; 7.5 mg/kg): no significant effect | food intake of mice (normal mice; 15 mg/kg): significant gradient effect | food intake of mice (normal mice; 30 mg/kg): significant gradient effect | expression of ACADM ([1]; liver): increased | expression of CPT1A ([1]; liver): increased | expression of FAT (CD36) ([1]; liver): increased | expression of FATP2 ([1]; liver): increased | expression of FATP5 ([1]; liver): increased | expression of ACADM ([1]; muscle): increased | expression of CPT1B ([1]; muscle): increased | expression of FATP1 ([1]; muscle): increased | expression of FATP4 ([1]; muscle): increased | expression of ATGL (lipolytic gene) ([1]; white adipose tissue): increase | expression of DGAT (fat storage gene) ([1]; white adipose tissue): significantly reduced | expression of FAS (fatty acid synthesis gene) ([1]; white adipose tissue): significantly down-regulated | expression of SCD1 (fatty acid synthesis gene) ([1]; white adipose tissue): significantly down-regulated | effect on daily food intake in heterozygous mice [2]: reduced | effect on mouse weight in heterozygous mice [2]: reduced | weight of mice (high-fat diet obese mice; obese mice about 40 g, high-fat diet 22 weeks, 20 mg/kg courses of injection): significantly reduce | increase of the proportion of muscle (high-fat diet obese mice; obese mice, 20 mg/kg courses): about 9 percentage points | fat content (high-fat diet obese mice; obese mice, MRI fat content measuring instrument, 20 mg/kg courses): significantly reduced | three-day water consumption of treated mice, percent of control group (mice; high-fat diet (HFD) mice): 26.38%±2.06% | three-day water consumption of treated mice, percent of control group (mice; normal chow diet (NCD) mice): 39.68%±2.29%
